Holding throughout (format): cell-based, mouse
Test [1] concerns β-galactosidase in CMV-LacZ C2C12 myotubes. Description: CMV-LacZ secondary screen in C2C12 myotubes (β-Gal stabilizing assay). Particulars: for CMV-LACZ in Myotubes, value relative to DMSO: SU9516 analogs, C2C12 CMV-LacZ, N=2; for CMV-LACZ in Myotubes, signal relative to DMSO: C2C12 CMV-LacZ myotubes, fold relative to DMSO. In a few lines: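 β-gal stabilization was measured in C2C12 myoblasts or myotubes stably transfected with a CMV-driven LacZ construct, using the FDG β-gal assay. Compounds were tested in dose-response at 0.5, 1, 5, 10, 20 and 40 μM, with two replicates per point.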

For test [2], the system named is α7 integrin (LacZ reporter in α7βgal+/− myoblasts). In words: Myoblast α7+/LacZ integrin FDG assay (Burkin assay in myoblasts, 96-well). The following applies: 96-well; for Burkin Assay in Myoblasts, value relative to DMSO: SU9516 analogs, N=3-6; for Burkin Assay in Myoblasts, signal relative to DMSO: α7+/LacZ myoblasts.
The test system of test [3] is α7 integrin (LacZ reporter in α7+/LacZ myotubes). Description: Myotube α7 integrin FDG assay (Burkin assay in myotubes, 96-well). The following applies: for Burkin Assay in Myotubes, value relative to DMSO: SU9516 analogs, 96-well, N=3-6.
Test [4] deals with β-galactosidase in CMV-LacZ C2C12 myoblasts. Description: CMV-LacZ secondary screen in C2C12 myoblasts (β-Gal stabilizing assay). Particulars: for CMV-LACZ in Myoblasts, value relative to DMSO: SU9516 analogs, C2C12 CMV-LacZ, N=2; for CMV-LACZ in Myoblasts (β-galactosidase activity relative to DMSO): CMV-LacZ C2C12 myoblasts. In a few lines:
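Stable CMV-LacZ C2C12 clone; six-point curve 0.5–40 μM; duplicates.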

Molecules are shown by their SMILES.

Consider `O=C1Nc2ccccc2/C1=C/c1cccnc1` [MLS000682748-01], for which the “CMV-LACZ in Myotubes, value relative to DMSO” value was 0.9356 in test [1] (0.5 uM); 0.8459 in test [1] (1 uM); 0.8790 in test [1] (5 uM); 0.9205 in test [1] (10 uM); 1.1753 in test [1] (20 uM); 1.1071 in test [1] (40 uM). Also, the “Burkin Assay in Myoblasts, value relative to DMSO” value in test [2] (0.5 uM) came out at 1.259; in test [2] (1 uM), 1.162; in test [2] (5 uM) it was 0.8923; in test [2] (10 uM) it was 0.765; in test [2] (20 uM), 0.4669; in test [2] (40 uM), 0.2472. Also, the “Burkin Assay in Myotubes, value relative to DMSO” value came to 0.9801 in test [3] (0.5 uM); 1.211 in test [3] (1 uM); 1.147 in test [3] (5 uM); 1.085 in test [3] (10 uM); 0.743 in test [3] (20 uM); 0.6206 in test [3] (40 uM). For the same compound, the “CMV-LACZ in Myoblasts, value relative to DMSO” value in test [4] (0.5 uM) worked out at 0.9075; in test [4] (1 uM), 0.9666; in test [4] (5 uM) it was 1.0215; in test [4] (10 uM), 0.9959; in test [4] (20 uM), 0.3893; in test [4] (40 uM), 0.2419.

In the case of `CCCCN(CC)Cc1ccc(CNC(=S)Nc2ccccc2F)o1` [MLS000689562-01], the “CMV-LACZ in Myotubes, signal relative to DMSO” value in test [1] (0.5 uM) is 0.9474; in test [1] (1 uM), 0.8652; in test [1] (5 uM) it was 1.0300; in test [1] (10 uM) it was 0.8105; in test [1] (20 uM) it was 0.9824; in test [1] (40 uM), 0.9788. Besides, the “Burkin Assay in Myoblasts, signal relative to DMSO” value in test [2] (0.5 uM) was determined as 1.074; in test [2] (1 uM), 1.014; in test [2] (5 uM) it was 1.013; in test [2] (10 uM), 1.224; in test [2] (20 uM), 0.9537; in test [2] (40 uM), 0.8817. Also, the “Burkin Assay in Myotubes, α7 integrin LacZ reporter signal relative to DMSO” value in test [3] (0.5 uM) stood at 1.081; in test [3] (1 uM) it was 1.035; in test [3] (5 uM), 0.9788; in test [3] (10 uM), 1.0159; in test [3] (20 uM) it was 0.7236; in test [3] (40 uM) it was 0.8547. For the same compound, the “CMV-LACZ in Myoblasts (β-galactosidase activity relative to DMSO)” value in test [4] (0.5 uM) is on record as 0.8453; in test [4] (1 uM), 0.7409; in test [4] (5 uM) it was 0.8060; in test [4] (10 uM), 1.0858; in test [4] (20 uM), 0.9919; in test [4] (40 uM), 1.0619.

`COc1ccc(NC(=O)C2(N(C(=O)Cn3nnnc3N)c3ccc(OC)cc3)CCCCC2)cc1` [MLS001030268-01]: the “CMV-LACZ in Myotubes, signal relative to DMSO” value worked out at 0.8830 in test [1] (0.5 uM); 1.1711 in test [1] (1 uM); 1.1318 in test [1] (5 uM); 1.1128 in test [1] (10 uM); 0.9365 in test [1] (20 uM); 0.9506 in test [1] (40 uM). In addition, the “Burkin Assay in Myoblasts, signal relative to DMSO” value in test [2] (0.5 uM) is 1.239; in test [2] (1 uM), 1.143; in test [2] (5 uM), 1.49; in test [2] (10 uM), 0.8716; in test [2] (20 uM), 0.726; in test [2] (40 uM) it was 0.6069. Besides, the “Burkin Assay in Myotubes, α7 integrin LacZ reporter signal relative to DMSO” value in test [3] (0.5 uM) came out at 1.076; in test [3] (1 uM), 1.161; in test [3] (5 uM) it was 1.213; in test [3] (10 uM), 0.9249; in test [3] (20 uM) it was 0.6277; in test [3] (40 uM) it was 0.7606. Moreover, the “CMV-LACZ in Myoblasts (β-galactosidase activity relative to DMSO)” value in test [4] (0.5 uM) turned out to be 1.0809; in test [4] (1 uM), 1.1550; in test [4] (5 uM), 1.1347; in test [4] (10 uM) it was 1.1787; in test [4] (20 uM) it was 0.7467; in test [4] (40 uM), 0.5556.

Turning to `CCC(CC)C(=O)Nc1c(C(=O)N2CCN(c3ccccc3)CC2)oc2ccccc12` [MLS001116079-01], the “CMV-LACZ in Myotubes, signal relative to DMSO” value in test [1] (0.5 uM) is given as 1.3543; in test [1] (1 uM), 0.8152; in test [1] (5 uM), 1.0227; in test [1] (10 uM), 1.1374; in test [1] (20 uM), 0.9063; in test [1] (40 uM), 1.0811. In addition, the “Burkin Assay in Myoblasts, signal relative to DMSO” value in test [2] (0.5 uM) was 1.03; in test [2] (1 uM) it was 1.087; in test [2] (5 uM) it was 1.025; in test [2] (10 uM), 0.9749; in test [2] (20 uM) it was 1.244; in test [2] (40 uM), 1.34. Further, the “Burkin Assay in Myotubes, α7 integrin LacZ reporter signal relative to DMSO” value came to 0.9524 in test [3] (0.5 uM); 0.9502 in test [3] (1 uM); 0.9559 in test [3] (5 uM); 0.9012 in test [3] (10 uM); 0.9027 in test [3] (20 uM); 0.9686 in test [3] (40 uM). In addition, the “CMV-LACZ in Myoblasts (β-galactosidase activity relative to DMSO)” value is reported as 1.0950 in test [4] (0.5 uM); 1.0492 in test [4] (1 uM); 0.9306 in test [4] (5 uM); 1.0228 in test [4] (10 uM); 1.0448 in test [4] (20 uM); 0.9078 in test [4] (40 uM).

These data come from patent US9980943B2, “Methods of treating muscular dystrophy” (BOARD OF REGENTS OF THE NEVADA SYSTEM OF HIGHER EDUCATION, …, priority 2013, dated 2018).
